According to patent publication US20210198204A1, “PRODRUGS OF KALLIKREIN INHIBITORS” (BioCryst Pharmaceuticals, Inc., priority 2016, published 2021):

Experiment: Plasma pharmacokinetics of the parent compound after a single oral dose of prodrug
Format: in vivo
Conditions: single oral dose 10 mg/kg, fasted male Sprague Dawley rats; plasma analyzed for the parent compound; study duration 8 h
Protocol: Plasma pharmacokinetics of compounds was determined using three male Sprague Dawley rats following a single oral dose administration. All animals were placed in a rat metabolic cage, isolated, and fasted approximately 15 hours prior to dosing. Identifying markers were placed on each animal. Each animal was weighed prior to dose administration. Animals were administered orally with a solution formulation of test compound either in water or a combination of water/propylene glycol, at a dose of 10 mg/kg. Gavage needles were attached to syringes and filled with appropriate amount of test article to be dosed. Blood samples (approximately 500 μL) were collected from three rats at pre-dose (time 0), 0.5, 1, 2, 4, 8, 12 and 24 hr, respectively, depending on study duration. Samples were collected into labeled micro centrifuge tubes containing (heparin solution) as an anticoagulant. Plasma was immediately harvested from the blood by centrifugation at 14,000 rpm for 3 min at 4° C., and stored below −70° C. until bioanalysis. Individual plasma samples were analyzed for the parent compound, 3-[2-(4-carbamimidoyl-phenylcarbamoyl)-5-methoxy-4-vinyl-phenyl]-6-(cyclopropylmethyl-carbamoyl)-pyridine-2-carboxylic acid. As shown in Table-1, the test compounds yielded varying degrees of exposure to the parent compound. The test compounds generally provided for improved bioavailability of the parent compound as compared to dosing of the parent compound in aqueous solutions.

| AUC0-last hour (area under the curve) | Structure (SMILES) |
| --- | --- |
| B (B = 1,001-10,000 ng/mL) | C=Cc1cc(C(=O)Nc2ccc(C(=N)NC(=O)OCCCCCC)cc2)c(-c2ccc(C(=O)NCC3CC3)nc2C(=O)OCOC(=O)[C@@H](N)CC(C)C)cc1OC [Compound 50d, (S)-((2-amino-4-methylpentanoyl)oxy)methyl 6-((cyclopropylmethyl)carbamoyl)-3-(2-((4-(N-((hexyloxy)carbonyl)carbamimidoyl)phenyl)carbamoyl)-5-methoxy-4-vinylphenyl)picolinate] |
| A (A = 0-1,000 ng/mL) | C=Cc1cc(C(=O)Nc2ccc(C(=N)NO)cc2)c(-c2ccc(C(=O)NCC3CC3)nc2C(=O)OC(C)OC(=O)OC(C)C)cc1OC (stereo not drawn) [Compound 51b, 1-((isopropoxycarbonyl)oxy)ethyl 6-((cyclopropylmethyl)carbamoyl)-3-(2-((4-(N-hydroxycarbamimidoyl)phenyl)carbamoyl)-5-methoxy-4-vinylphenyl)picolinate] |
| A (A = 0-1,000 ng/mL) | C=Cc1cc(C(=O)Nc2ccc(-c3noc(=O)[nH]3)cc2)c(-c2ccc(C(=O)NCC3CC3)nc2C(=O)OC(C)OC(=O)OC(C)C)cc1OC (stereo not drawn) [Compound 52b, 1-((isopropoxycarbonyl)oxy)ethyl 6-((cyclopropylmethyl)carbamoyl)-3-(5-methoxy-2-((4-(5-oxo-4,5-dihydro-1,2,4-oxadiazol-3-yl)phenyl)carbamoyl)-4-vinylphenyl)picolinate] |
| B (B = 1,001-10,000 ng/mL) | C=Cc1cc(C(=O)Nc2ccc(C(=N)NC(=O)OC(C)OC(=O)[C@@H](N)C(C)C)cc2)c(-c2ccc(C(=O)NCC3CC3)nc2C(=O)OC(C)OC(=O)OC(C)C)cc1OC (stereo partly drawn) [Compound 54c, 1-((isopropoxycarbonyl)oxy)ethyl 3-(2-((4-(N-((1-(((S)-2-amino-3-methylbutanoyl)oxy)ethoxy)carbonyl)carbamimidoyl)phenyl)carbamoyl)-5-methoxy-4-vinylphenyl)-6-((cyclopropylmethyl)carbamoyl)picolinate] |
| B (B = 1,001-10,000 ng/mL) | C=Cc1cc(C(=O)Nc2ccc(C(=N)NC(=O)OC(C)OC(=O)[C@@H](N)C(C)C)cc2)c(-c2ccc(C(=O)NCC3CC3)nc2C(=O)OC(C)OC(=O)C(C)C)cc1OC (stereo partly drawn) [Compound 55b, 1-(isobutyryloxy)ethyl 3-(2-((4-(N-((1-(((S)-2-amino-3-methylbutanoyl)oxy)ethoxy)carbonyl)carbamimidoyl)phenyl)carbamoyl)-5-methoxy-4-vinylphenyl)-6-((cyclopropylmethyl)carbamoyl)picolinate] |
| C (C >10,000 ng/mL) | C=Cc1cc(C=O)c(-c2ccc(C(=O)NCC3CC3)nc2C(=O)OC(OC(=O)C(C)(C)C)C(C)C)cc1OC (stereo not drawn) [Compound 56b, 2-methyl-1-(pivaloyloxy)propyl 6-((cyclopropylmethyl)carbamoyl)-3-(2-formyl-5-methoxy-4-vinylphenyl)picolinate] |
| B (B = 1,001-10,000 ng/mL) | C=Cc1cc(C(=O)Nc2ccc(C(=N)NC(=O)OCCCCCC)cc2)c(-c2ccc(C(=O)NCC3CC3)nc2C(=O)OC(OC(=O)C(C)(C)C)C(C)C)cc1OC (stereo not drawn) [Compound 57a, 2-methyl-1-(pivaloyloxy)propyl 6-((cyclopropylmethyl)carbamoyl)-3-(2-((4-(N-((hexyloxy)carbonyl)carbamimidoyl)phenyl)carbamoyl)-5-methoxy-4-vinylphenyl)picolinate] |
| B (B = 1,001-10,000 ng/mL) | C=Cc1cc(C(=O)Nc2ccc(C(=N)N)cc2)c(-c2ccc(C(=O)NCC3CC3)nc2C(=O)OC(C)OC(=O)[C@@H](N)C(C)C)cc1OC.Cl (stereo partly drawn) [Compound 58f, 1-(((S)-2-amino-3-methylbutanoyl)oxy)ethyl 3-(2-((4-carbamimidoylphenyl)carbamoyl)-5-methoxy-4-vinylphenyl)-6-((cyclopropylmethyl)carbamoyl)picolinate Hydrochloride] |
| B (B = 1,001-10,000 ng/mL) | C=Cc1cc(C(=O)Nc2ccc(C(=N)NC(=O)OCCCCCC)cc2)c(-c2ccc(C(=O)NCC3CC3)nc2C(=O)OC(C)OC(=O)[C@@H](N)C(C)C)cc1OC.Cl (stereo partly drawn) [Compound 59b, 1-(((S)-2-amino-3-methylbutanoyl)oxy)ethyl 6-((cyclopropylmethyl)carbamoyl)-3-(2-((4-(N-((hexyloxy)carbonyl)carbamimidoyl)phenyl)carbamoyl)-5-methoxy-4-vinylphenyl)picolinate Hydrochloride] |
| A (A = 0-1,000 ng/mL) | C=Cc1cc(C(=O)Nc2ccc(C(=N)NC(=O)OCCCCCC)cc2)c(-c2ccc(C(=O)NCC3CC3)nc2C(=O)OCOC(=O)[C@@H](N)CCC(=O)O)cc1OC [Compound 61d, (S)-4-amino-5-(((6-((cyclopropylmethyl)carbamoyl)-3-(2-((4-(N-((hexyloxy)carbonyl)carbamimidoyl)phenyl)carbamoyl)-5-methoxy-4-vinylphenyl)picolinoyl)oxy)methoxy)-5-oxopentanoic acid] |
| B (B = 1,001-10,000 ng/mL) | C=Cc1cc(C(=O)Nc2ccc(C(=N)NC(=O)OCCCCCC)cc2)c(-c2ccc(C(=O)NCC3CC3)nc2C(=O)OCOC(=O)[C@@H](N)[C@@H](C)CC)cc1OC [Compound 62d, (((2S,3S)-2-amino-3-methylpentanoyl)oxy)methyl 6-((cyclopropylmethyl)carbamoyl)-3-(2-((4-(N-((hexyloxy)carbonyl)carbamimidoyl)phenyl)carbamoyl)-5-methoxy-4-vinylphenyl)picolinate] |
| C (C >10,000 ng/mL) | C=Cc1cc(C(=O)Nc2ccc(C(=N)NC(=O)OC(C)C)cc2)c(-c2ccc(C(=O)NCC3CC3)nc2C(=O)OC(C)OC(=O)OC(C)C)cc1OC (stereo not drawn) [Compound 63c, 1-((isopropoxycarbonyl)oxy)ethyl 6-((cyclopropylmethyl)carbamoyl)-3-(2-((4-(N-(isopropoxycarbonyl)carbamimidoyl)phenyl)carbamoyl)-5-methoxy-4-vinylphenyl)picolinate] |
| B (B = 1,001-10,000 ng/mL) | C=Cc1cc(C(=O)Nc2ccc(C(=N)NC(=O)OC(C)OC(=O)C(C)C)cc2)c(-c2ccc(C(=O)NCC3CC3)nc2C(=O)OCOC(=O)[C@@H](N)C(C)C)cc1OC (stereo partly drawn) [Compound 64b, (((S)-2-amino-3-methylbutanoyl)oxy)methyl 6-((cyclopropylmethyl)carbamoyl)-3-(2-((4-(N-((1-(isobutyryloxy)ethoxy)carbonyl)carbamimidoyl)phenyl)carbamoyl)-5-methoxy-4-vinylphenyl)picolinate] |
| B (B = 1,001-10,000 ng/mL) | C=Cc1cc(C(=O)Nc2ccc(C(=N)NC(=O)OC3COCOC3)cc2)c(-c2ccc(C(=O)NCC3CC3)nc2C(=O)OC(C)OC(=O)C(C)C)cc1OC (stereo not drawn) [Compound 65c, 1-(isobutyryloxy)ethyl 3-(2-((4-(N-(((1,3-dioxan-5-yl)oxy)carbonyl)carbamimidoyl)phenyl)carbamoyl)-5-methoxy-4-vinylphenyl)-6-((cyclopropylmethyl)carbamoyl)picolinate] |

| Structure (SMILES) | AUC0-last hour (area under the curve) |
| --- | --- |
| C=Cc1cc(C(=O)Nc2ccc(C(=N)NC(=O)OCCC(=O)OC(C)(C)C)cc2)c(-c2ccc(C(=O)NCC3CC3)nc2C(=O)OC(C)OC(=O)OC(C)C)cc1OC (stereo not drawn) [Compound 60c, 1-((isopropoxycarbonyl)oxy)ethyl 3-(2-((4-(N-((3-(tert-butoxy)-3-oxopropoxy)carbonyl)carbamimidoyl)phenyl)carbamoyl)-5-methoxy-4-vinylphenyl)-6-((cyclopropylmethyl)carbamoyl)picolinate] | B (B = 1,001-10,000 ng/mL) |
